Each structure is given as a SMILES string.

Here are results for 12 compounds from patent publication US20240228502A1, “2-PHENYLAMINO PYRROLOPYRIMIDINES AS ACK1 INHIBITORS” (H. LEE MOFFITT CANCER CENTER AND RESEARCH INSTITUTE, INC., priority 2021, published 2024).

Assay [1] concerns the target T1, ACK1 (Homo sapiens, UniProt Q07912). Description: ACK1 inhibition (ACK1 IC50). The assay is classed as biochemical.
Assay [2] addresses T1, ACK1. Description: DSF = Differential Scanning Fluorimetry, thermal shift. The assay is classed as binding. In general terms: DSF heats the sample and reads unfolding from a dye or from intrinsic fluorescence.
Another assay relates to UKE1. As to the kind of experiment: Cell viability, UKE1. The assay is classed as cell-based.
In a further assay the test system is MDA-MB-231. As to the kind of experiment: Cell viability, MDA-MB-231. The assay is classed as cell-based.
Setting [3] is: Homo sapiens, MDA-MB-231, MDA-MB-231.

T1 sequence (Q07912 whole entry): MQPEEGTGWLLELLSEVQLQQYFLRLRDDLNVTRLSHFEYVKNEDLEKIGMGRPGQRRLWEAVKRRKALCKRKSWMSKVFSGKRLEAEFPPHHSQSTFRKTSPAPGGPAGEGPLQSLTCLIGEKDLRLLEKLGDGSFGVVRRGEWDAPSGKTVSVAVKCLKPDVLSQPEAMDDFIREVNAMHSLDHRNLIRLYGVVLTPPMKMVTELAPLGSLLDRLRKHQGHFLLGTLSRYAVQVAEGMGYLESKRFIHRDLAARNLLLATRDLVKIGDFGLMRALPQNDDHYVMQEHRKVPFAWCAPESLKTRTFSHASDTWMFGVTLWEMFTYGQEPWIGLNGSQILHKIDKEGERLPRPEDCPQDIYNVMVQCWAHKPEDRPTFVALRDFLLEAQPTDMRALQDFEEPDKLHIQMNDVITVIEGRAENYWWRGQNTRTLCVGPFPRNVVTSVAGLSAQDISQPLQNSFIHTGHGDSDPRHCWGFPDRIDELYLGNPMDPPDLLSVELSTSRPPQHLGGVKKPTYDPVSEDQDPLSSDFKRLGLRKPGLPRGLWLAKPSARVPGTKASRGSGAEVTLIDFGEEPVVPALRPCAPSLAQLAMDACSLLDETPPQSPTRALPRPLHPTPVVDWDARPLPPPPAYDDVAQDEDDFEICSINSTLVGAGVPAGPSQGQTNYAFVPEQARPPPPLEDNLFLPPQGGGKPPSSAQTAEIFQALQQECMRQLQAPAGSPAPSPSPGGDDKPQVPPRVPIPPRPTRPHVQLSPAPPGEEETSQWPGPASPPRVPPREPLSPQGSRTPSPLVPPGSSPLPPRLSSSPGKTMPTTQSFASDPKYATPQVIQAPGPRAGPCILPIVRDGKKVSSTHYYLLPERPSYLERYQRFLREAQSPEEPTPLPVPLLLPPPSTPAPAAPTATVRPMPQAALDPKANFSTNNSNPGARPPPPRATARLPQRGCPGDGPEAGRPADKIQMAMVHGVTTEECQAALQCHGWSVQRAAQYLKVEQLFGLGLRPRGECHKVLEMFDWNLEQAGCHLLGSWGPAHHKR

As usually defined, the IC50 is the concentration that inhibits the measured activity by half. Higher therefore signals weaker potency. In general, EC50 refers to the midpoint of the concentration-response curve. As for `CC(C)Oc1cc(Nc2ncc3ccn(CCc4ccccc4)c3n2)ccc1N1CCN(C)CC1`, the IC50 on ACK1 [1] is less than 250 nM. Moreover, the “DSF (ΔTm (° C.))” value at ACK1 [2] amounted to 4.5 °C. The EC50 with UKE1 (UKE1, UKE1) came to 1800 nM; in the assay with MDA-MB-231 (setting [3]), 3420 nM.

`CC(C)S(=O)(=O)Nc1cccc(-n2ccc3cnc(Nc4ccc(N5CCN(C)CC5)c(F)c4)nc32)c1` came in with a half-inhibitory concentration (IC50) on ACK1 [1] of less than 250 nM. The “DSF (ΔTm (° C.))” value on ACK1 [2] stood at 4.5 °C. Further, the EC50 in the assay on UKE1 (UKE1, UKE1) is 74 nM; in the assay with MDA-MB-231 (setting [3]), 462 nM.

Regarding `COc1cc(N2CCN(C)CC2)c(F)cc1Nc1ncc2ccn(-c3cccc(NS(=O)(=O)C(C)C)c3)c2n1`, on ACK1 [1], the IC50 was less than 250 nM. Moreover, the “DSF (ΔTm (° C.))” value on ACK1 [2] is 4.8 °C. Also, the half-maximal effective concentration (EC50) worked out at 940 nM in the assay with UKE1 (UKE1, UKE1) and 1580 nM with MDA-MB-231 (setting [3]).

Compound `COc1cc(N2CCN(C)CC2)ccc1Nc1ncc2ccn(-c3cccc(NS(=O)(=O)C(C)C)c3)c2n1` had an IC50 on ACK1 [1] of less than 250 nM. Moreover, the “DSF (ΔTm (° C.))” value at ACK1 [2] came to 7.6 °C. Also, the EC50 in the assay on UKE1 (UKE1, UKE1) came to 2700 nM; in the assay on MDA-MB-231 (setting [3]), 5150 nM.

On to `CC(C)S(=O)(=O)Nc1cccc(-n2ccc3cnc(Nc4ccc(N5CCN(C)CC5)c(OCCO)c4)nc32)c1`, for which, at ACK1 [1], the IC50 is less than 250 nM. Besides, on ACK1 [2], the “DSF (ΔTm (° C.))” value was 6.4 °C. The EC50 with UKE1 (UKE1, UKE1) turned out to be 390 nM; in the assay on MDA-MB-231 (setting [3]), 151 nM.

On ACK1 [1], `CN1CCN(c2ccc(Nc3ncc4ccn(CC5CCCO5)c4n3)cc2OCCO)CC1` (stereo not shown) gave an IC50 of less than 250 nM. Also, the “DSF (ΔTm (° C.))” value on ACK1 [2] was determined as 5.3 °C. Moreover, the concentration for a half-maximal effect (EC50) stood at 710 nM in the assay on UKE1 (UKE1); 1280 nM with UKE1 (UKE1, UKE1); 720 nM with MDA-MB-231 (setting [3]); 1280 nM in the assay with MDA-MB-231 (MDA-MB-231).

`CC(C)Oc1cc(Nc2ncc3ccn(-c4cccc(NS(=O)(=O)C(C)C)c4)c3n2)ccc1N1CCN(C)CC1` returned a half-inhibitory concentration (IC50) at ACK1 [1] of less than 250 nM. Also, the “DSF (ΔTm (° C.))” value on ACK1 [2] was 5.2 °C. Besides, the EC50 worked out at 310 nM with UKE1 (UKE1, UKE1) and 164 nM in the assay with MDA-MB-231 (setting [3]).

For `CN1CCN(c2ccc(Nc3ncc4ccn(CC5CCCO5)c4n3)cc2OC2CCCC2)CC1` (stereo not shown), on ACK1 [1], the IC50 was less than 250 nM. For the same compound, the EC50 was 2100 nM with UKE1 (UKE1, UKE1); 2100 nM with MDA-MB-231 (setting [3]); 1050 nM with MDA-MB-231 (MDA-MB-231).

As for `COc1cc(N2CCN(C)CC2)c(F)cc1Nc1ncc2ccn(-c3ccc(N4CCCS4(=O)=O)cc3)c2n1`, the concentration for half-maximal inhibition (IC50) against ACK1 [1] is less than 250 nM. Further, the “DSF (ΔTm (° C.))” value at ACK1 [2] turned out to be 5.2 °C. Moreover, the concentration giving a half-maximal response (EC50) is 1400 nM with UKE1 (UKE1, UKE1) and 3940 nM in the assay with MDA-MB-231 (setting [3]).

`CC(C)Oc1cc(Nc2ncc3ccn(C[C@H]4CCCO4)c3n2)ccc1N1CCN(C)CC1` registered a half-maximal inhibitory concentration (IC50) at ACK1 [1] of less than 250 nM. At ACK1 [2], the “DSF (ΔTm (° C.))” value was found to be 5.3 °C. Further, the EC50 in the assay on UKE1 (UKE1, UKE1) turned out to be 1000 nM; with MDA-MB-231 (setting [3]), 1100 nM.

Regarding `COc1cc(Nc2ncc3ccn(-c4cccc(NS(=O)(=O)C(C)C)c4)c3n2)ccc1N1CCN(C)CC1`, at ACK1 [1], the IC50 was less than 250 nM. The “DSF (ΔTm (° C.))” value on ACK1 [2] is 6.4 °C. Moreover, the concentration for a half-maximal effect (EC50) in the assay with UKE1 (UKE1, UKE1) worked out at 110 nM; in the assay with MDA-MB-231 (setting [3]) it was 231 nM.

The compound `CN1CCN(c2ccc(Nc3ncc4ccn(-c5cccc(N6CCCS6(=O)=O)c5)c4n3)cc2F)CC1` came in with an IC50 against ACK1 [1] of less than 250 nM. Moreover, the EC50 in the assay on UKE1 (UKE1, UKE1) was 55 nM; in the assay on MDA-MB-231 (setting [3]), 840 nM.
